Measurements published in patent US6046239A, “Anthranilic acid analogs” (American Home Products Corporation, priority 1998, dated 2000).

Key:
[1] = tested on: Isolated Rat Bladder Strips; experiment: Inhibition of contractions in isolated rat bladder strips; format: cell-based
Method: Sprague-Dawley rats (150-200 g) are rendered unconscious by CO2 asphyxiation and then euthanized by cervical dislocation. […] The bladder is opened and then cut into strips 1-2 mm in width and 7-10 mm in length. The strips are subsequently suspended in a 10 mL tissue bath under an initial resting tension of 1.5 g. The strips are held in place by two surgical clips one of which is attached to a fixed hook while the other is attached to an isometric force transducer. […] The carbachol is then washed out and the tissue allowed to relax to its resting level of activity. Following a further 30 min period of recovery an additional 15 mM KCl are introduced into the tissue bath. […] Following stabilization of this enhanced level of contractile activity, incremental increases in the concentration of test compound or vehicle are introduced into the tissue bath. Contractile activity is measured for each compound or vehicle concentration during the last minute of a 30 minute challenge.

Aorta = experiment: Inhibition of contractions in aorta (indication of selectivity); format: cell-based
[2] = biological target: T1, calcium-dependent large conductance potassium channels (maxi K^+) (Rattus norvegicus, UniProt Q62976); experiment: Potassium channel activation, whole cell patch clamp in isolated rat detrusor cells; format: cell-based; settings: 10 μM in superfusate; isolated rat bladder cells
T1 construct: endogenous in cells; host or cells: freshly isolated rat detrusor (urinary bladder smooth muscle) cells
T1 sequence (Q62976 whole entry): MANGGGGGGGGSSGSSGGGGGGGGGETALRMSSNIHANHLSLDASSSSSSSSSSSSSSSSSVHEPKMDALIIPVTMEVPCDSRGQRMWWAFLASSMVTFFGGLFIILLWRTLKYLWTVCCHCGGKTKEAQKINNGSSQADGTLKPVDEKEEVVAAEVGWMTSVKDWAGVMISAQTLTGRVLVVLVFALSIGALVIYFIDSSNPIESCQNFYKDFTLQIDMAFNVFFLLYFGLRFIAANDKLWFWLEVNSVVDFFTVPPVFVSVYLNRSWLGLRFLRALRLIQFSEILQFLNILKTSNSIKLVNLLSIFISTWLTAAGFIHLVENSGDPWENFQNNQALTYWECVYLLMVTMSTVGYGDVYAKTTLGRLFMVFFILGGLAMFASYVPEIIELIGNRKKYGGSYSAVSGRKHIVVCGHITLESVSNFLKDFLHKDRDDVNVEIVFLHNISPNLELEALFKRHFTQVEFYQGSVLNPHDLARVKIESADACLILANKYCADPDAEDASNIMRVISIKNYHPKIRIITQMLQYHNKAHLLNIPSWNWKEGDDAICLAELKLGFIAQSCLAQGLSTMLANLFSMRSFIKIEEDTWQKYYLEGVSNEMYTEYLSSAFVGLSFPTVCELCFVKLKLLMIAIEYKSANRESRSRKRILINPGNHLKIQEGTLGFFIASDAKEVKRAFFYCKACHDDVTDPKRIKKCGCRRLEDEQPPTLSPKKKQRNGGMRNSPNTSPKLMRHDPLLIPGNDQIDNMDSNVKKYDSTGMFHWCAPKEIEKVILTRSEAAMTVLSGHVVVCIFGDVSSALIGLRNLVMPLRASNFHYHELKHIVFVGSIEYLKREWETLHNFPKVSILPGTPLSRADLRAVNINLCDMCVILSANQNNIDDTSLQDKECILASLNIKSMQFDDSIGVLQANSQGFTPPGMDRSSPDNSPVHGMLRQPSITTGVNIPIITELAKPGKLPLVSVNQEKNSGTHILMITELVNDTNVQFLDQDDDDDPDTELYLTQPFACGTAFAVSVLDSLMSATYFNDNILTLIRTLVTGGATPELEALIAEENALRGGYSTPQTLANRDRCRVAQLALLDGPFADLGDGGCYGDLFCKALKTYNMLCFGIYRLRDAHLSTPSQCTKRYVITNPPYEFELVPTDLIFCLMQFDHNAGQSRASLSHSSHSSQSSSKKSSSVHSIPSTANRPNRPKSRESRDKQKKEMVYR
T1 sequence (P97678 whole entry partner): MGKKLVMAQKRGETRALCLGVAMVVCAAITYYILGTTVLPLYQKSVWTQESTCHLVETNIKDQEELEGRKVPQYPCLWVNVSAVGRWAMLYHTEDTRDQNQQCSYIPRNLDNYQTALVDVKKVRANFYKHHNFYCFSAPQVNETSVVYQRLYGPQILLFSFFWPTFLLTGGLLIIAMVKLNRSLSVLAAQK
Method: Potassium channel activation by compounds of the present invention was established by examining the effect of the compound of Example 1 on calcium-dependent large conductance potassium channels (maxi K^+) as follows:
Rat detrusor cells were isolated in a manner previously described for guinea-pig detrusor (Sheldon and Argentieri, 1995). Male Sprague-Dawley rats (200-400 grams) were euthanized by CO2 inhalation and exsanguination. Their urinary bladders were rapidly removed and placed in 37° C. physiological solution with the following composition (mM): Na glutamate (80.0), NaCl (54.7), KCl (5.0), NaHCO3 (25.0), MgCl2.2H2 O (2.5), D-glucose (11.8) and CaCl2 (0.2) gassed with CO2 --O2, 95%/5% for a final pH of 7.4. The dome of the bladder was isolated from the trigon region and the mucosa was removed. This tissue was then cut into 2-3 mm wide strips and placed in fresh buffer for 1 hour. Tissues were then transferred into 10.0 ml of an isolation buffer containing the above composition plus collagenase type VIII (1.0 mg/ml) and pronase (0.25 mg/ml). After 10 minutes the isolation buffer was replaced with fresh isolation buffer for an additional 10 min. […]
Whole cell recordings were made using broken patch assess. […] After stability was achieved control currents were recorded. […] Currents were recorded for 5 to 10 minutes or until compound effects reached steady state. […]

[3] = tested on: swelling induced chloride channel current; experiment: Chloride channel blockade, swelling induced chloride current in bladder cells; format: cell-based, guinea pig; settings: bladder cell, ICl type swelling (210 mOsm), 60 mV
From the text: Normal human bronchial epithelial cells (NHBE) were commercially available from Clonetics Corporation (San Diego, Calif.) and bladder cells were isolated from rat bladder.
The normal external solution contained (in mM): N-methyl d-Glucamine chloride (NMDGCl). 140, MgCl2 2, CaCl2 2 and 4-(2-hydroxyethyl)-1-piperazine ethanesulfonic acid (HEPES) 10. The normal pipette solution contained (in mM): NMDGCl. 125, HEPES 10, MgCl2 2, ethylenebis(oxonitrilo)tetaaacetate (EGTA) 2, and ATPMg 5, the pH adjusted to 7.3 with TRIS. To identify the leak conductance from depolarization, internal Cl ion concentration was reduced to 40 mM using glutamic acid (ECl approximately -31 mV according Nernst equation). The osmolarity for standard external solution was about 280 mOsm. Hypotonic solutions were obtained by diluting the normal external solution with distilled water.
The whole cell voltage clamp recording techniques were utilized to record membrane ionic currents. The volume of the recording chamber was 1 ml and the rate of superfusion was 4 ml/min. Membrane currents were recorded using an Axopatch 200A Patch Clamp Amplifier (Axon Instruments, Inc., Foster City, Calif.). Under voltage clamp conditions, the cells were stimulated at 0.2 Hz to be sure channels were completely recovered between two voltage steps. […]

C/C(=C\c1ccc(C(F)(F)F)cc1)C(=O)Nc1ccccc1C(=O)[O-].[Li+] [Example 1, Step 4, (E)-2-[2-Methyl-3-(4-trifluoromethyl-phenyl)-acryloylamino]-benzoic acid lithium salt]
IC50 ([1]; contractions enhanced by additional 15 mM KCl, isolated rat bladder strips, read-out: IC50 /μM Bladder (B)): 1.07 ± 0.37 µM | IC50 (A)/ IC50 (B) ([1]; ratio aorta/bladder, indication of selectivity): 39.6 | IC50 (Aorta): 41.9 ± 8.4 µM | effect on outward current [2]: increase in outward current that was reversible upon washout | % blockade 20 μM [3]: 67%
